Assay results published in patent publication US11819540B2, “Methods for treating and preventing neutrophil-derived net toxicity and thrombosis” (CHILDREN'S MEDICAL CENTER CORPORATION, priority 2011, dated 2023).

Columns and labels:
NETs [1] = test: Perfusion of blood over NETs in a flow chamber; format: cell-based, human
Description: The interaction between NETs and blood was studied using NETs isolated from human neutrophils. Blood samples were obtained from healthy donors who had not taken any medication for at least 10 day. Platelets and neutrophils were prepared from ACD-blood (Brill A, et al. Cardiovasc Res 2009 84(1):137-144) or EDTA-blood (Fuchs et al., J Cell Biol 2007 176:231-241), respectively. Neutrophils were seeded into flow chambers (μ-Slide IV, IBIDI) at 0.5 to 1×10^7 cells/mL. NET formation by the majority of cells was induced by phorbol 12-myristate 13-acetate (PMA, 50 nM, 4 h; Sigma Aldrich) or glucose oxidase (GO, 1 U/mL, 4 h; Worthington Biochem), as previously described (Brill A, et al. Cardiovasc Res 2009 84(1):137-144). PMA-induced NETs were used for initial observations. Other experiments were done with GO-induced NETs. NETs were washed and blocked with 1% BSA (Calbiochem). NET-DNA was stained with 1 μg/mL Hoechst 33258 (Invitrogen) for 15 min at 37° C. or SytoxGreen (1 μM, Invitrogen). Washed platelets were loaded with fluorescent Calcein-AM (2.5 μg/mL, 10 min, 37° C.; Invitrogen) or platelets in whole blood were labeled with Rhodamine 6G (5 μg/mL, 10 min, 37° C.; Sigma). Fluorescent images were acquired by a Zeiss Axiovert 200 inverted fluorescence microscope in conjunction with a monochrome camera (AxioCam MRm). Colors for fluorescence channels were assigned using Axiovision software. Fluorescent areas in images were quantified using ImageJ software.
(§1) NETs were induced on glass coverslips and perfusion was performed using a parallel-plate flow chamber system (Glycotech). NETs were perfused with platelets suspended in plasma at a shear rate of 200/s or 900/s and 37° C. using a peristaltic pump and observed to be avidly adhering platelets. NETs were washed and fixed with 2.5% glutaraldehyde and electron microscopy was performed. […] NETs were also perfused with ACD-anticoagulated blood supplemented with the irreversible thrombin inhibitor PPACK-Dihydrochloride (100 μM; Calbiochem) and recalcified by addition of 2 mM CaCl2. […] Cells firmly attached to collagen or NETs were lysed with 100 μL of 0.5% Triton×100 in water. Hemoglobin content was measured using the method of Drabkin (Drabkin PNAS 1971 68:609-13). To quantify platelets, Rhodamine-6G fluorescence of the sample was analyzed using a fluorometer.
Strings of NETs aligned in the direction of flow and, importantly, NETs were not a static surface but moved in three dimensions. Within 1 min from onset of perfusion, small platelet aggregates appeared on NETs. Platelet adhesion and aggregation on NETs increased over the next 9 min. […] Both platelet aggregates and NETs were removed by DNase and 10 minutes after the beginning of perfusion (FIGS. 1C and 1D). […] Thus, NETs were the only prothrombotic substrate in these experiments. FIGS. 1C and 1D show data that are representative of at least three independent experiments and are shown as mean±SEM, n=3. AU means arbitrary units.

NETs [2] = test: Incubation of NETs under static conditions, immunodetection of released histone H2B; format: cell-based, human
Text: (§2) For FIGS. 2A and 2B data are presented as mean±SEM, n=3; (Student's t test; *P<0.05; **P<0.01). […] A second band (arrowhead) may represent cross reactivity of the antibody or a proteolytic product. Data presented are representative of three independent experiments. FIG. 2D is a graph of the degree of aggregation of platelets treated with thrombin (open circles), human recombinant histone H3 (solid circles), EDTA (solid squares), and heparin (solid triangles). […] FIG. 2E is a graph of the degree of aggregation of platelets 3 minutes after addition of various histones or throbmin (Thr). […] (ANOVA; ***P<0.001 compared with histone H1).
The effect of heparin was also observed in medium, indicating a direct interaction of heparin with the NETs. Heparin has high affinity for histones (Pal et al., Thromb Res 1983 31:69-79) and releases histones from chromatin (Napirei et al. FEBS J 2009 276:1059-1073).

platelets = test: Platelet aggregation (light transmission) with histones; format: cell-based, human; settings: EDTA 5 mM; heparin
Text: as §2
The possibility of a direct interaction between platelets and histones was examined. […] Thrombin (0.5 U/mL; open circles in FIG. 2D) and […] served as a positive control in these experiments. Aggregation in response to histone H3 (FIG. 2D) and H4 (data not shown) was inhibited by EDTA (5 mM; solid squares in FIG. 2D) which excluded platelet agglutination caused by the positive charge of histones. […] Dissociating NETs and inhibiting histones could add to the antithrombotic effects of heparin.

NETs [3] = test: Binding of plasma VWF, fibronectin and fibrinogen to NETs; format: cell-based, human; settings: DNaseI 100 U/mL, 10 min after plasma incubation
Description: FIGS. 19A-19C depict graphs of the binding of von Willebrand factor (VWF), fibronectin, and fibrinogen to neutrophil extracellular traps (NETs). Human NETs were incubated with human plasma for 30 min, washed, and stained for VWF (19A), fibronectin (19B), or fibrinogen (19C). […] Data are presented as mean±SEM, n=3; (Student's t test); **P<0.01; ***P<0.001.
Whether NETs can concentrate plasma proteins that promote and stabilize thrombi (Frenette and Wagener NEJM 1996 335:43-5) was determined. […] After the activation, NETs were incubated with 1% BSA for 1 h at 37° C. NETs were washed and incubated with 50% plasma in PBS for 30 min at 37° C. Next, NETs were washed and treated with DNaseI (100 U/mL, 10 min). After another wash, cells were fixed with paraformaldehyde (2%, 1 h at 37° C.) and unspecific binding sites were blocked with BSA (3%, 1 h at 37° C.). Primary antibodies were used at 1 μg/mL in PBS supplemented with 1% BSA and 0.1% Triton×100 [mouse-antifibrinogen, rabbit-antifibronectin (both Sigma); rabbit-anti-VWF, (Chemicon)]. After incubation at 37° C. for 1 h, samples were washed with PBS and fluorescently conjugated secondary antibodies (Invitrogen) were applied at 10 μg/mL for 30 min at 37° C. […] The interaction of fibrinogen with NETs and its ability to promote fibrin deposition was determined. […]

collagen = test: Perfusion of blood over collagen-coated flow chamber; format: cell-based; settings: blood supplemented with DNase
Description: as §1
When NETs were washed after perfusion with blood and observed macroscopically a red thrombus was detectable (FIG. 3A). Shown in FIG. 3A is a flow chamber coated with NETs after perfusion with blood. Light microscopy of a red thrombus (arrow) anchored on two strings (arrowheads). FIG. 3A is a composite of multiple photographs of the flow chamber. (Scale bar, 500 μm). […] RBC adhesion to NETs was prevented when blood was supplemented with DNase, confirming that RBCs were attached to NETs. […]

[4] = test system: blood clots (fibrin and NET scaffold); test: Clot formation in recalcified blood with or without PAF-activated neutrophils (thrombolysis); format: cell-based, human; settings: tPA 25 μg/mL, DNase 100 U/mL
Description: Fibrin polymerization was induced in blood by recalcification and incubated either in the absence (medium) or presence of neutrophils preactivated by PAF to induce NET formation (neutrophils+PAF). Samples were treated with DNase to digest extracellular traps or tPA for fibrin digestion. […] (Scale bar, 1 cm.) The graph presents quantification of the clots by weighing. […] Data are presented as mean±SEM, n=4; (ANOVA; ***P<0.001). The first bar in each x-axis category represents the untreated samples, the second bar represents the samples treated with DNase, the third bar represents the samples treated with tPA, and the fourth bar represents the samples treated with tPA and DNase.
The relative susceptibility of NETs and fibrin to serve as scaffolds for blood clots to thrombolysis was examined (FIG. 20). Neutrophils were prestimulated with platelet-activating factor to release NETs with recalcified blood under stirring conditions. Two-hundred-fifty microliters of 5×10^6 neutrophils per milliliter in RPMI medium were activated by platelet activating factor (50 μM Calbiochem) at 37° C. under static conditions to induce NET formation. Control samples were 250 μL medium alone, 250 μL of unstimulated neutrophils, or 250 μL of 50 μM PAF in medium. After 10 min, 250 μL of recalcified (40 mM CaCl2) ACD anticoagulated blood was added. […] Images were acquired and the clot was determined. […]

[5] = blood supplemented with DNase at the beginning of the perfusion

| Molecule | platelet aggregates on NETs (NETs [1]; heparin 10 μg/mL) | NETs (NET-DNA) (NETs [1]; heparin 100 μg/mL, perfusion with heparinized blood, 10 min) | release of histones (H2B) from NETs (NETs [2]) | platelet aggregation in response to histone H3 and H4 in presence of inhibitor (platelets) | binding of VWF, fibronectin and fibrinogen to NETs (NETs [3]) | NETs and adherent platelets after DNase addition (NETs [1]; DNase 100 U/mL added 10 min after beginning of perfusion) | RBC adhesion to NETs (NETs [1]; blood supplemented with DNase) | platelet adhesion to NETs (NETs [1]; blood supplemented with DNase) | NETs (NET-DNA area) (NETs [1]; [5]) | platelet aggregates on NETs (NETs [1]; [5]) | platelet adhesion to collagen-coated chambers (collagen) | clot formation ([4]; absence of activated neutrophils (medium)) | clot formation / clot size ([4]; presence of PAF-activated neutrophils) |
| --- | --- | --- | --- | --- | --- | --- | --- | --- | --- | --- | --- | --- | --- |
| Heparin [reference compound] | removed platelet aggregates from NETs | almost completely dismantled NETs | released histones to the culture supernatant | completely abolished platelet response to these histones | – | – | – | – | – | – | – | – | – |
| O=C(O)CN(CCN(CC(=O)O)CC(=O)O)CC(=O)O [EDTA, ethylenediaminetetraacetic acid] | – | – | – | inhibited | – | – | – | – | – | – | – | – | – |
| DNase | – | – | released histones to the culture supernatant | – | binding to NETs in a DNase-sensitive manner | simultaneously removed NETs and platelets | prevented | prevented platelet adhesion to NETs | NETs were degraded rapidly | platelet aggregates did not form | had no effect | had no effect | did not change |
